In the NIST ThermoML archive (doi:10.1021/je049788h):
Numbers after ± are expanded uncertainties.

Conditions: 101.3 kPa, Liquid; for viscosity: Capillary tube (Ostwald / Ubbelohde) method; for mass density: Vibrating tube method

Q: Which viscosity (298.15 K) does the source give for COCCOCCOCCOCCOC [2,5,8,11,14-pentaoxapentadecane] here?
A: The viscosity was 3.38 ± 0.04 mPa·s.

Q: What about the mass density (298.15 K) of the same compound?
A: Its mass density is 1006.65 ± 0.51 kg/m3.

Q: And the viscosity (313.15 K)?
A: The viscosity was 2.42 ± 0.03 mPa·s.

Q: What about the mass density (313.15 K) of the same compound?
A: Its mass density is 993.28 ± 0.51 kg/m3.

Q: And the viscosity (323.15 K)?
A: Its viscosity is 2.004 ± 0.026 mPa·s.

Q: And the mass density (323.15 K)?
A: Its mass density is 984.05 ± 0.5 kg/m3.

Q: What about the viscosity (333.15 K) of the same compound?
A: Its viscosity is 1.69 ± 0.02 mPa·s.

Q: And the mass density (333.15 K)?
A: The mass density was 974.8 ± 0.5 kg/m3.

Q: What about the viscosity (343.15 K) of the same compound?
A: The viscosity was 1.42 ± 0.02 mPa·s.

Q: And the mass density (343.15 K)?
A: Its mass density is 965.55 ± 0.49 kg/m3.
